The values that follow come from publication PMC12575728, “Galactose-modified small molecule modulator targets RORα to enhance circadian rhythm and alleviate periodontitis-associated alveolar bone loss” (Bone Research, 2025).

Molecules are shown by their SMILES.

One data set deals with human U2OS cells. The experiment in a line: CCK-8 assay and live-dead staining. The format is cell-based. Conditions: 1-100 μmol/L, 24, 48, 72 h, pronounced above 10 μmol/L. Here is the method:
U2OS cells were seeded at a density of 10 000 cells per well in a 96-well plate, with 100 μL of culture medium added to each well. The cells were incubated at 37 °C in a 5% CO2 atmosphere for 24 h or until they reached the logarithmic growth phase. Following this, the cells were treated with SR1078, Gala-SR, Malt-SR, and Mann-SR and incubated for 24, 48, and 72 h. 10 μL of CCK-8 reagent was added to each well, and the plate was returned to the incubator for an additional 1–4 h. Absorbance at 450 nm was then measured using a microplate reader. The average absorbance for each well was calculated, and relative cell viability was determined by comparing the absorbance values to those of the control group.
332 Figure S25. After U2OS cells were treated with various concentrations (0 ~ 50 μM) of SR1078,
333 Gala-SR, Malt-SR, and Mann-SR for 24 hours, live and dead cells were labeled using the
334 Calcein-AM/PI double-staining method. Scale bar: 50 μm.
Body weight changes (%) in
338 C57BL/6J mice (n = 4) after 7 days of administration of Gala-SR, SR1078, or DMSO at doses of 10
339 mg/kg and 50 mg/kg via IP were measured. […]
(Formazan colour is commonly taken as a measure of viable cells.)

A further data set concerns β-galactosidase. The data set is described as follows: Hydrolysis of Gala-SR by β-galactosidase (MS). The format is in vitro ADME. The note with it: mass spectrometry.
Data set [1] can be described thus: Toxicity and safety evaluation in vivo (blood biochemistry, histopathology). The note with it: mice, 10 mg/Kg. The protocol: (§1) 379 Figure S34. Exploration of the inhibitory effect of compound 9 on the targeting function of RORs. a.
(§2) 380 Synthetic route of compound 9. b. Cytotoxicity assessment of compound 9 by CCK-8 assay. c.qPCR
(§3) 381 analysis of downstream target genes (FGF21 and G6Pase) in compound 9-treated HepG2 cells(n=6).
(§4) 382 d. Cotransfection of HEK293T cells with RORα or RORγ and reporters containing the FGF21 or
(§5) 384 5μM each of Gala-SR and SR1078. (* represents the comparison with DMSO*P<0.05, n=4).
(§6) 386 Figure S35. Impact of Gala-SR on circadian clock gene expression in periodontal ligament stem cells.
(§7) 387 qPCR analysis of core clock genes at multiple time points in synchronized hPDLSCs treated with 5
(§8) 391 Figure S36.Toxicity and safety evaluation in vivo.a. After intraperitoneal injection of Gala-SR and
(§9) 392 SR1078 for 2 weeks, mouse serum was collected to measure […] (ALT, AST, CREA,
393 and BUN. ns, not significant) to assess the drugs' impact on liver function. b. HE staining was
394 performed on liver, kidney, and heart tissues from mice after 2 weeks of intraperitoneal injection with […]

Data set [2] has as its system human periodontal ligament stem cells. The experiment in a line: qPCR of circadian clock genes in synchronized human periodontal ligament stem cells. Conditions: synchronized hPDLSCs, 5 µM, compared to DMSO and SR1078. Type of data set: cell-based. The protocol: RNA from liver, periodontal tissues and cell samples was prepared as previously described. Total RNA (1 ug) was synthesized into cDNA using […] (Vazyme). mRNA expression levels were normalized to GAPDH. Relative expression levels and enrichment contents were calculated using the comparative Ct Method. Primer information is detailed in Data file S1.
as §1, §2, §3, §4, §5, §6, §7, §8, §9
393 and BUN. ns, not significant) to assess the drugs' impact on liver function. b. HE staining was […]

Details of data set [3]: method as in PMID 20735016. Conditions: cited from earlier work.

For the compound `O=C(Nc1ccc(C(OCO[C@@H]2O[C@H](CO)[C@H](O)[C@H](O)[C@H]2O)(C(F)(F)F)C(F)(F)F)cc1)c1ccc(C(F)(F)F)cc1` [Gala-SR], the “cytotoxicity / cell compatibility” value in the data set with human U2OS cells is reported as “superior among all the evaluated groups”. Further, the “hydrolysis upon addition of galactosidase (release of SR1078)” value in the data set with β-galactosidase is “hydrolysis of galactose on, Gala-SR occurred”. Moreover, the “histopathological examination of liver, kidney, and heart” value in data set [1] is recorded as “no discernible changes”. The “rhythmic expression amplitude of BMAL1, PER1, and PER2” value in data set [2] is recorded as “more effectively enhanced”.

Consider `O=C(Nc1ccc(C(O)(C(F)(F)F)C(F)(F)F)cc1)c1ccc(C(F)(F)F)cc1` [SR1078, reference compound], for which, in data set [3] (in vitro), the “safe dose for in vitro experiments” value is 5 µmol/L. In addition, the “safe dose for animal studies” value in data set [3] (mice) is 10 mg/kg.
